Data reported in paper PMC9502272, “A Metabolomics Approach for Predicting OATP1B-Type Transporter-Mediated Drug–Drug Interaction Liabilities” (Pharmaceutics, 2022).
Values joined by “and” are separate entries in the source; they are usually repeats but may differ in a detail not shown here. Equal values may be shown once.

Tests used:
[1] = test system: human OATP1B3; experiment: Baseline plasma CDCA-24G in Oatp1a/1b(−/−) mice with transgenic hepatic expression of OATP1B3 (OATP1B3(tg)); assay type: in vivo; details: range stated jointly for OATP1B1(tg) and OATP1B3(tg)
Procedure: (§1) Plasma concentrations of levels of CDCA-24G and glycochenodeoxycholate-3-sulfate (GCDCA-S) were determined using LC-MS/MS using a Vanquish UHPLC coupled with a Quantiva triple quadrupole mass spectrometer (Thermo Fisher Scientific, Waltham, MA, USA). An Accucore aQ column (50 × 2.1 mm, dp = 2.6 μm; Thermo Fisher Scientific) was protected by a C18 AQUASIL guard cartridge (2.1 mm × 10 mm, dp = 3 μm; Thermo Fisher Scientific). The injection volume of sample was 5.0 μL. The temperature of the autosampler rack was 4 °C, and the temperature of the column was maintained at 20 °C. The mobile phase was composed of solvent A (2 mmol ammonium acetate in water) and solvent B (100% methanol), and the total run time was 4.6 min. The gradient conditions were as follows: 0–0.5 min, 45% B; 0.5–2.0 min, 45 to 90%, 2.0–4.0 min, 90% B; 4.0–4.6 min, 45% B, delivered at a flow rate of 0.4 mL/min. […] Precursor molecular ions, and product ions were recorded for the confirmation and detection of GCDCA-S (528.4 > 448.3) and CDCA-24G (567.4 > 391.1), using [^2H5]-GCDCA-S (535.5 > 453.3) and [^2H5]-CDCA-24G (572.5 > 396.1) as respective internal standards. The lower limit of quantitation (LLOQ) for both analytes was determined to be 0.5 ng/mL. […]

[2] = target: T1, Oatp1b2 (Mus musculus, UniProt Q9JJL3); experiment: Uptake in HEK293 cells overexpressing Oatp1b2; assay type: cell-based; parameters: from tissue; hepatic transporter in vivo; details: HEK293 cells overexpressing Oatp1b2, 5 min uptake, vs empty vector
T1 sequence (Q9JJL3 1-689): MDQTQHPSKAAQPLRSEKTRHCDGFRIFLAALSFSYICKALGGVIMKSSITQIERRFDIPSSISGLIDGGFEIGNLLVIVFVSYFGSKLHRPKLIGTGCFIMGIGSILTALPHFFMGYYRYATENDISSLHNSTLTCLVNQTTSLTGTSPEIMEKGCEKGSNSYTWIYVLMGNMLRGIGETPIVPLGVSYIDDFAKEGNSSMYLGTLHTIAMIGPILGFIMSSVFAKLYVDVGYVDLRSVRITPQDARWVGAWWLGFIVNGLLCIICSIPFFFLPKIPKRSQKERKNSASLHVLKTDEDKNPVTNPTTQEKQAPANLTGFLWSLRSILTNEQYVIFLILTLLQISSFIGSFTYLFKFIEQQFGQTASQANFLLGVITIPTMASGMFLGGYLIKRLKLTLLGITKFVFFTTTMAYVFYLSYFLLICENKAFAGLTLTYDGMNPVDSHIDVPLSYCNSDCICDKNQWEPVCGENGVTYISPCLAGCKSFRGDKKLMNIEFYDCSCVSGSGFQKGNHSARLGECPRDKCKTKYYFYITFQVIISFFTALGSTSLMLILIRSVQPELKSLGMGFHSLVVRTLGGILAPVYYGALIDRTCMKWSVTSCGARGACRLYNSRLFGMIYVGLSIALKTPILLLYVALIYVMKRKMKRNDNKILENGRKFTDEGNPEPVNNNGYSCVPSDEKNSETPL
Procedure: The generation of human embryonic kidney (HEK293) cells (ATCC) engineered to overexpress OATP1B1, Oatp1b2, or empty vector, the cell culture conditions, and general details of uptake studies have been reported in detail elsewhere. Briefly, cells were grown to 90% confluence on poly-lysine coated multi-well plates. […] The pre-treatment medium was rinsed off with warm 1× PBS followed by the addition of the test compounds for an incubation period of 5 min. After incubation, transport was halted by aspirating the medium and rinsing the cells three times with ice-cold 1× PBS. After lysing cells with 0.1 N HCl, and subsequent adding methanol, 20 μL aliquots were mixed with 60 μL of acetonitrile containing relevant internal standards. After vortex mixing, the mixtures were centrifuged, and the supernatants were used for quantitative analysis by LC-MS/MS. Drug uptake results were normalized to total protein content and then to data obtained in cells carrying an empty vector plasmid, which was set to 100%.

[3] = test system: Oatp1a/1b; experiment: Baseline plasma biomarker levels in Oatp1a/1b(−/−) cluster-knockout vs wild-type mice; assay type: in vivo, mouse; details: n = 6–10 per group
Procedure: Plasma concentrations of levels of CDCA-24G and glycochenodeoxycholate-3-sulfate (GCDCA-S) were determined using LC-MS/MS using a Vanquish UHPLC coupled with a Quantiva triple quadrupole mass spectrometer (Thermo Fisher Scientific, Waltham, MA, USA). An Accucore aQ column (50 × 2.1 mm, dp = 2.6 μm; Thermo Fisher Scientific) was protected by a C18 AQUASIL guard cartridge (2.1 mm × 10 mm, dp = 3 μm; Thermo Fisher Scientific). The injection volume of sample was 5.0 μL. The temperature of the autosampler rack was 4 °C, and the temperature of the column was maintained at 20 °C. The mobile phase was composed of solvent A (2 mmol ammonium acetate in water) and solvent B (100% methanol), and the total run time was 4.6 min. The gradient conditions were as follows: 0–0.5 min, 45% B; 0.5–2.0 min, 45 to 90%, 2.0–4.0 min, 90% B; 4.0–4.6 min, 45% B, delivered at a flow rate of 0.4 mL/min. The MS assay setting with the positive voltage applied to the ESI capillary was set at 3791 V, and the capillary temperatures was 335 °C with a vaporizer temperature of 350 °C. Argon was used as the collision gas at a pressure of 1.5 mTorr. Precursor molecular ions, and product ions were recorded for the confirmation and detection of GCDCA-S (528.4 > 448.3) and CDCA-24G (567.4 > 391.1), using [^2H5]-GCDCA-S (535.5 > 453.3) and [^2H5]-CDCA-24G (572.5 > 396.1) as respective internal standards. The lower limit of quantitation (LLOQ) for both analytes was determined to be 0.5 ng/mL. […]
Plasma concentrations of coproporphyrin I (CP-I) and III (CP-III) were determined similarly by LC-MS/MS. […] Precursor molecular ions and product ions were recorded for confirmation and detection of CP-I (655.4 > 596.4) and CP-III (655.4 > 596.3), using [^2H4]-CP-III (659.4 > 600.3) as the internal standard for both analytes. The LLOQ for both analytes were determined to be 1 ng/mL, and the within-run and between-run precisions as well as the accuracy were always within acceptable limits.

[4] = target: T1, Oatp1b2; experiment: Baseline plasma CDCA-24G in Oatp1b2(−/−) vs wild-type mice, validated quantitative LC-MS/MS; assay type: in vivo; parameters: from tissue; host or cells: living wild-type mice (DBA/1LacJ or FVB background); hepatic transporter in vivo; details: untreated, n = 6 per group
Procedure: as §1

## C[C@H](CCC(=O)O[C@@H]1O[C@H](C(=O)O)[C@@H](O)[C@H](O)[C@H]1O)[C@H]1CC[C@H]2[C@@H]3[C@H](O)C[C@@H]4C[C@H](O)CC[C@]4(C)[C@H]3CC[C@]12C [CDCA-24G, chenodeoxycholate-24-glucuronide]
[1]
  Baseline CDCA-24G level, fold lower than in Oatp1a/1b(−/−) mice: 5- to 7 fold
[2]
  Transport by murine OATP1B-type transporter: efficiently transported
[3]
  Plasma concentration of CDCA-24G in Oatp1a/1b(−/−) mice relative to wild type: 83 fold and > 80 fold
[4]
  Plasma concentration of CDCA-24G in Oatp1b2(−/−) mice relative to wild type: 31 fold and > 30 fold
